The record followed here is patent US20230263803A1, “METHODS OF PREVENTING OR TREATING COVID-19 AND RELATED VIRAL DISEASES OR DISORDERS” (KINARUS AG, priority 2020, published 2023).

Where only a bound is given, the exact number is not on record here.

The test system of series [1] is SARS-CoV-2PR1. The series is described as follows: microbe, parasite or virus in culture. Type of series: cell-based. Conditions: Vero B4 cells, 72 hrs, qRT-PCR. On the technique in general: Quantitative PCR measures a nucleic acid by following its amplification.
Series [2] deals with Vero B4 cells. The note with it: 72 hrs.

On to `CCc1ccc(CCOc2ccc(CC3SC(=O)NC3=O)cc2)nc1` (stereo not drawn) [Pioglitazone], for which the “inhibition of viral shedding” value in series [1] (at the highest concentrations) was over 90%.
In general, inhibition refers to the drop in the measured response relative to a control, in per cent. For the molecule `Cn1c(=O)c(Oc2ccc(F)cc2F)cc2cnc(NC(CCO)CCO)nc21` [Pamapimod, 6-(2,4-Difluorophenoxy)-2-[3-hydroxy-1-(2-hydroxyethyl)-propylamino]-8-methyl-8H-pyrido[2,3-d]pyrimidin-7-one], in series [1] (Severe acute respiratory syndrome coronavirus 2, lowest concentration tested (100 nM), read-out: inhibition of shedding of new SARS-CoV-2 viruses into culture supernatants), the inhibition at 0.1 µM is 80%. The “cellular toxicity as determined by WST assay” value in series [2] is “no cellular toxicity”.
